Measured values published in US20170354147A1, “SAFENING AMINOPYRALID COMPOSITIONS IN BRASSICA SPECIES WITH CLOPYRALID AND METHODS OF USE THEREOF” (Dow AgroSciences LLC, priority 2016, published 2017).
Where “and” joins values, the source holds several entries; their conditions need not be identical. Identical values can stand only once.

Key:
Format in all cases: in vivo
[1] = test system: Aparima Gold swede (Brassica sp., BRSSS); assay: Field trials Canterbury, New Zealand, postemergence crop safety (visual injury, growth inhibition) to Aparima Gold swede
Description: (§1) The following equation was used to calculate the expected activity of mixtures containing two active ingredients, A and B:
(§2) Expected=A+B−(A×B/100) • A=observed efficacy of active ingredient A at the same concentration as used in the mixture; • B=observed efficacy of active ingredient B at the same concentration as used in the mixture.
(§3) BRSOM=Brassica oleracea var. acephala subvar. Medullosa (stem kale) BRSSS=Brassica sp. (Aparima Gold swede) BRSNS-RR=Brassica napus (spring rape or Spring Argentine rape, Roundup® Ready) g ae/ha=grams acid equivalent per hectare Mean % visual injury=observed value of percent (%) injury rated visually Observed Mean % visual injury=observed value of percent (%) injury rated visually Colby predicted mean % visual injury=expected value of percent (%) injury as calculated by Colby's equation Mean % visual leafroll=observed value of percent (%) leafroll rated visually Observed Mean % visual leafroll=observed value of percent (%) leafroll rated visually Colby predicted mean % visual leafroll=expected value of percent (%) leafroll as calculated by Colby's equation Mean % visual growth inhibition=observed value of percent (%) growth inhibition rated visually Observed Mean % visual growth inhibition=observed value of percent (%) growth inhibition rated visually Colby predicted mean % visual growth inhibition=expected value of percent (%) growth inhibition as calculated by Colby's equation
Two field trials were established in Canterbury, New Zealand to evaluate crop safety of herbicide treatments to leafy forage brassica crops (Aparima Gold swede (Brassica sp., BRSSS)). Trials were designed as randomized complete blocks with four replicates. All trials were established as weed-free tolerance trials with plot size of 3 meters (m) by 8 m (width×length). The crops were grown using normal cultural practices for fertilization, seeding, and maintenance to ensure good growth of the crop.
All herbicide treatments were applied post-emergence with applications made to the crops at the 3 to 5-leaf stage. Herbicides were applied with backpack sprayers using carbon dioxide (CO2) as a propellant. […] All treatments were applied with Uptake adjuvant (paraffinic oil/Non-Ionic Surfactant blend) at 1% v/v. Phytotoxicity to the crops was assessed visually at several intervals after application as percent overall injury, compared to an untreated control plot. The overall injury assessments were based on visual ratings of growth inhibition, leaf deformity, epinasty, and chlorosis.
Aminopyralid-TIPA was applied as Tordon™ Max Herbicide (30 g ae/L SL), and clopyralid-TIPA was applied as Versatill™ (300 g ae/L SL),

[2] = test system: Spring Argentine canola (Brassica napus, BRSNS), Nex 1012 glyphosate-tolerant, BRSNS-RR; assay: Field trials Canada, postemergence crop safety (visual injury) to glyphosate-tolerant Spring Argentine canola
Description: as §3
Field trials were established in Canada (in Manitoba, Alberta, and Saskatchewan) to evaluate crop safety of herbicide treatments to Spring Argentine canola (Brassica napus, BRSNS). Trials were designed as randomized complete blocks with four replicates. Trials were established as weed-free crop tolerance trials with plot sizes of 2-3 meters (m) by 8-25 m (width×length). The crops were grown using normal cultural practices for fertilization, seeding, and maintenance to ensure good growth of the crop.
The overall injury assessments were based on visual ratings of growth inhibition, leaf deformity, epinasty, chlorosis and delay in maturity. Assessments were made at 8-10 days after treatment (DAT) for an initial rating, 14-17 DAT for an early-season rating, 28-32 DAT for a mid-season rating, and 42-55 DAT for a late-season rating.
Aminopyralid-triisopropanolammonium (TIPA) was applied as Milestone® (240 g ae/L SL); clopyralid-olamine was applied as Lontrel™ 360 (360 g ae/L SL); and glyphosate-dimethylammonium was applied as Vantage™ XRT (480 g ae/L SL).

[3] = test system: Aparima Gold swede (Brassica sp., BRSSS); assay: Pot trials, postemergence crop safety (visual injury) to Aparima Gold swede
Description: as §1, §2, §3
(§4) Two pot trials were established at Dow AgroSciences Waireka Field Research Station, New Zealand to evaluate crop safety of herbicide treatments to two species of leafy and bulb forage brassica crops (stem kale (Brassica oleracea var. acephala subvar. medullosa, BRSOM) and Aparima Gold swede (Brassica sp., BRSSS)). Trials were designed as randomized complete blocks with five replicates. Trials were established as weed-free tolerance trials. Pot size was 10 by 10 centimeters (cm, width×length). The forage brassica crops were grown using normal cultural practices for fertilization, seeding, watering and maintenance to ensure good growth of the crops.
(§5) All herbicide treatments were applied post-emergence with applications made to the crops at the 2 to 5-leaf stage. Herbicides were applied with a belt spray chamber system with compressed air as a propellant. The sprayer utilized a flat fan spray nozzle calibrated to deliver a uniform spray pattern that provided thorough coverage of the foliage using a 200 liters per hectare (L/ha) spray volume. All treatments were applied with Uptake adjuvant (paraffinic oil/Non-Ionic Surfactant blend) at 0.5% volume per volume (v/v). Phytotoxicity to the crops was assessed visually at several intervals after application as percent overall injury, compared to an untreated control plot. The overall injury assessments were based on visual ratings of growth inhibition, leaf deformity, epinasty, and chlorosis.
(§6) Aminopyralid-triisopropanolammonium (TIPA) was applied as Tordon™ Max Herbicide (30 grams acid equivalent per liter (g ae/L) soluble (liquid) concentrate (SL)), and clopyralid-TIPA was applied as Versatill™ (300 g ae/L SL), The compositions tested, application rates employed, plant species tested, and results are given in Table 1 through Table 3.

[4] = test system: stem kale (Brassica oleracea var. acephala subvar. medullosa, BRSOM); assay: Pot trials, postemergence crop safety (visual injury, leafroll) to stem kale
Description: as §1, §2, §3, §4, §5, §6

[5] = 10 g ae/ha, with Glyphosate-DMA 450 g ae/ha
[6] = 20 g ae/ha, with Glyphosate-DMA 450 g ae/ha
[7] = Glyphosate-DMA 450 g ae/ha alone (Aminopyralid-TIPA 0 g ae/ha)

Question: `Nc1cc(Cl)nc(C(=O)O)c1Cl` [Aminopyralid TIPA, tris (2-hydroxypropyl)ammonium 4-amino-3,6-dichloropyridine-2-carboxylate] was tested. Which “Mean % Visual Growth Inhibition” value ([1]; 13DAA1, 60 g ae/ha) did it give?
Answer: Its value is 28.8% and 28.9%.

Question: And the “Mean % Visual Injury” value ([1]; 13DAA1, 60 g ae/ha)?
Answer: Its value is 22.5%.

Question: And the “Mean % Visual Injury” value ([1]; 22DAA1, 60 g ae/ha)?
Answer: The value was 28.8%.

Question: What about the “Mean % Visual Growth Inhibition” value ([1]; 28DAA1, 60 g ae/ha) of the same compound?
Answer: The value was 45.0%.

Question: What about the “Mean % Visual Injury” value ([1]; 28DAA1, 60 g ae/ha) of the same compound?
Answer: The value was 38.8%.

Question: And the “Mean % Visual Growth Inhibition” value ([1]; 56DAA1, 60 g ae/ha)?
Answer: Its value is 8.8%.

Question: And the “Mean % Visual Injury Early (14-17) DAT” value [2, 5]?
Answer: The value was 1.9%.

Question: What about the “Mean % Visual Injury Initial (8-10 DAT)” value [2, 5] of the same compound?
Answer: Its value is 2.8%.

Question: And the “Mean % Visual Injury Late (42-55 DAT)” value [2, 5]?
Answer: The value was 1.5%.

Question: And the “Mean % Visual Injury Mid (28-32 DAT)” value [2, 5]?
Answer: The value was 2.3%.

Question: What about the “Mean % Visual Injury Early (14-17) DAT” value [2, 6] of the same compound?
Answer: The value was 5%.

Question: And the “Mean % Visual Injury Initial (8-10 DAT)” value [2, 6]?
Answer: Its value is 5%.

Question: And the “Mean % Visual Injury Late (42-55 DAT)” value [2, 6]?
Answer: Its value is 0.6%.

Question: What about the “Mean % Visual Injury Mid (28-32 DAT)” value [2, 6] of the same compound?
Answer: Its value is 5.6%.

Question: And the “Mean % Visual Injury” value ([3]; 3DAA1, 60 g ae/ha)?
Answer: The value was 6.8%.

Question: And the “Mean % Visual Injury” value ([3]; 7DAA1, 60 g ae/ha)?
Answer: Its value is 9.6%.

Question: And the “Mean % Visual Injury” value ([3]; 15DAA1, 60 g ae/ha)?
Answer: The value was 15.4%.

Question: What about the “Mean % Visual Injury” value ([3]; 28DAA1, 60 g ae/ha) of the same compound?
Answer: The value was 15.6%.

Question: With `O=C(O)c1nc(Cl)ccc1Cl` [Clopyralid TIPA, (2RS,2′RS,2″RS)-tris(2-hydroxypropyl)ammonium 3,6-dichloropyridine-2-carboxylate] as the compound, how does the “Mean % Growth Inhibition” value ([1]; 13DAA1, 45 g ae/ha) read?
Answer: The value was 2.8%.

Question: What about the “Mean % Visual Injury” value ([1]; 13DAA1, 45 g ae/ha) of the same compound?
Answer: Its value is 0.8%.

Question: What about the “Mean % Growth Inhibition” value ([1]; 13DAA1, 90 g ae/ha) of the same compound?
Answer: Its value is 8.8%.

Question: And the “Mean % Growth Inhibition” value ([1]; 13DAA1, 180 g ae/ha)?
Answer: Its value is 7.5%.

Question: What about the “Mean % Visual Injury” value ([1]; 13DAA1, 180 g ae/ha) of the same compound?
Answer: Its value is 2.3%.

Question: What about the “Mean % Visual Injury” value ([1]; 22DAA1, 45 g ae/ha) of the same compound?
Answer: The value was 0.0%.

Question: What about the “Mean % Growth Inhibition” value ([1]; 28DAA1, 180 g ae/ha) of the same compound?
Answer: Its value is 3.8%.

Question: And the “Mean % Visual Injury” value ([1]; 28DAA1, 180 g ae/ha)?
Answer: The value was 3.0%.

Question: What about the “Mean % Growth Inhibition” value ([1]; 56DAA1, 45 g ae/ha) of the same compound?
Answer: The value was 6.0%.

Question: And the “Mean % Visual Leafroll” value ([4]; 1DAA1, 90 g ae/ha)?
Answer: Its value is 0.0%.

Question: What about the “Mean % Visual Leafroll” value ([4]; 1DAA1, 180 g ae/ha) of the same compound?
Answer: Its value is 0.0%.

Question: What about the “Mean % Visual Leafroll” value ([4]; 1DAA1, 360 g ae/ha) of the same compound?
Answer: Its value is 0.0%.

Question: What about the “Mean % Visual Leafroll” value ([4]; 4DAA1, 90 g ae/ha) of the same compound?
Answer: Its value is 0.0%.

Question: What about the “Mean % Visual Leafroll” value ([4]; 4DAA1, 180 g ae/ha) of the same compound?
Answer: Its value is 0.0%.

Question: What about the “Mean % Visual Injury” value ([4]; 7DAA1, 45.0 g ae/ha) of the same compound?
Answer: The value was 0.0% and 0.7%.

Question: And the “Mean % Visual Injury” value ([4]; 7DAA1, 90.0 g ae/ha)?
Answer: Its value is 0.0% and 0.7%.

Question: And the “Mean % Visual Injury” value ([4]; 7DAA1, 180.0 g ae/ha)?
Answer: Its value is 0.0% and 0.7%.

Question: And the “Mean % Visual Injury” value ([4]; 7DAA1, 360.0 g ae/ha)?
Answer: Its value is 0.0% and 0.7%.

Question: What about the “Mean % Visual Injury” value ([4]; 15DAA1, 22.5 g ae/ha) of the same compound?
Answer: Its value is 0.0%.

Question: What about the “Mean % Visual Injury” value ([4]; 15DAA1, 45 g ae/ha) of the same compound?
Answer: Its value is 0%.

Question: What about the “Mean % Visual Injury” value ([4]; 15DAA1, 90 g ae/ha) of the same compound?
Answer: Its value is 0%.

Question: What about the “Mean % Visual Leafroll” value ([4]; 15DAA1, 90 g ae/ha) of the same compound?
Answer: The value was 0.0%.

Question: What about the “Mean % Visual Leafroll” value ([4]; 15DAA1, 180 g ae/ha) of the same compound?
Answer: Its value is 0.0%.

Question: What about the “Mean % Visual Injury” value ([4]; 15DAA1, 180.0 g ae/ha) of the same compound?
Answer: The value was 0.0%.

Question: And the “Mean % Visual Leafroll” value ([4]; 15DAA1, 360 g ae/ha)?
Answer: The value was 0.0%.

Question: What about the “Mean % Visual Injury” value ([4]; 15DAA1, 360.0 g ae/ha) of the same compound?
Answer: Its value is 0.0%.

Question: What about the “Mean % Visual Injury” value ([4]; 28DAA1, 90.0 g ae/ha) of the same compound?
Answer: The value was 0.0%.

Question: What about the “Mean % Visual Injury” value ([4]; 28DAA1, 360 g ae/ha) of the same compound?
Answer: The value was 0%.

Question: And the “Mean % Visual Leafroll” value ([4]; 28DAA1, 360 g ae/ha)?
Answer: The value was 0.0%.

Question: What about the “Mean % Visual Injury” value ([3]; 3DAA1, 90 g ae/ha) of the same compound?
Answer: Its value is 2.2%.

Question: And the “Mean % Visual Injury” value ([3]; 7DAA1, 90 g ae/ha)?
Answer: The value was 0.4%.

Question: What about the “Mean % Visual Injury” value ([3]; 15DAA1, 90 g ae/ha) of the same compound?
Answer: The value was 0.0%.

Question: What about the “Mean % Visual Injury” value ([3]; 28DAA1, 90 g ae/ha) of the same compound?
Answer: The value was 0.0%.

Question: Which results are given for `CNC.O=C(O)CNCP(=O)(O)O` [Glyphosate-DMA]?
Answer: Mean % Visual Injury Early (14-17) DAT [2, 7]: 0.4%; Mean % Visual Injury Initial (8-10 DAT) [2, 7]: 1%; Mean % Visual Injury Late (42-55 DAT) [2, 7]: 0.2%; Mean % Visual Injury Mid (28-32 DAT) [2, 7]: 1.5%
